Here are results for one substance from patent US10675333B2, “Infusion pump” (priority 2016, dated 2020).

This test has as its system subject with a body weight of 51.5 kg. The experiment in a line: GnRH stimulation test (LH and FSH levels). Type of test: in vivo, human. As to the method: In the test, a subject with a body weight of 51.5 kg was included, and their luteinizing hormone (LH) and follicle-stimulating hormone (FSH) levels were measured as test indicators both in mIU/mL.

As to “GnRH: stimulating agent of the GnRH stimulation test; not further described (QHWSYGLRPG; Gonadoliberin-1; UniProt P01148 24-33, looked up)”, the FSH was 3.49 mIU/mL (0 min (reference time)); 4.47 mIU/mL (25 min); 5.44 mIU/mL (45 min); 6.21 mIU/mL (90 min); 6.12 mIU/mL (180 min). For the same substance, the LH (0 min (reference time)) turned out to be 0.99 mIU/mL; the LH (25 min) was found to be 3.2 mIU/mL; the LH (45 min) was 3.76 mIU/mL; the LH (90 min) is 3.76 mIU/mL; the LH (180 min) is listed as 2.46 mIU/mL. This substance returned an FSH maximum level (maximum stimulated level) of 6.21 mIU/mL. Moreover, the LH maximum level (maximum stimulated level) was determined as 3.76 mIU/mL.
